The record followed here is ChEMBL document CHEMBL1201862, “PubChem BioAssay data set” (2004).

Some test systems named below: CAKI-1; CCRF-CEM; HCT-116; HL-60; HOP-62; K562; KM12; MDA-MB-231; NCI-H460; OVCAR-3; OVCAR-4; PC-3; RXF 393; SF-539; SK-MEL-28; SK-MEL-5; SK-OV-3; TK-10; U-251; UO-31.
Experiment in all cases: NCI-60 cell line screen, 48 h

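Assay format: 96-well plates, 48-hour exposure. GI50: concentration for 50% inhibition of growth.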 Activity calls are given as the source filed them. Rule as the data show it: active = GI50 up to about 1.1 µM and inactive = higher. A value given as a limit tells only on which side of the number the result lay.

Turning to `Cc1c(C)c(S(=O)(=O)N(CCCCCN)OCCCN)c(C)c2c1OC(C)(C)CC2`, the GI50 in the experiment with CAKI-1 was 20.5 µM (inactive); in the experiment on CCRF-CEM, 2.6 µM (inactive); in the experiment on HCT-116, 5.98 µM (inactive); in the experiment with HL-60, 2.19 µM (inactive); with HOP-62 it was 8.05 µM (inactive); with K562 it was 5.07 µM (inactive). For the same compound, the GI50 is 2.92 µM (inactive) with KM12; 5.89 µM (inactive) in the experiment with MDA-MB-231; 6.35 µM (inactive) in the experiment with NCI-H460; 5.9 µM (inactive) in the experiment on OVCAR-3; 3.96 µM (inactive) in the experiment with OVCAR-4; 4.06 µM (inactive) in the experiment on PC-3. Further, the GI50 is 11.6 µM (inactive) in the experiment with RXF 393; > 25.3 µM (inactive) with SF-539; 18.9 µM (inactive) in the experiment with SK-MEL-28; 14.2 µM (inactive) with SK-MEL-5; 13.4 µM (inactive) with SK-OV-3; 16.2 µM (inactive) in the experiment on TK-10. Also, the GI50 in the experiment on U-251 is 5.64 µM (inactive); with UO-31, 20.1 µM (inactive).

On to `Cc1cc(NCCCCCCCCCC[n+]2c(C)cc(N)c3ccccc32)c2ccccc2n1`, for which the GI50 in the experiment on CAKI-1 was 9.68 µM (inactive); in the experiment on CCRF-CEM, 0.472 µM (active); with HCT-116, 0.209 µM (active); in the experiment on HL-60 it was 0.0721 µM (active); in the experiment on HOP-62 it was 4.36 µM (inactive); with K562, 0.0409 µM (active). Besides, the GI50 with KM12 is 0.2 µM (active); with MDA-MB-231 it was 0.652 µM (active); with NCI-H460 it was 0.0638 µM (active); with OVCAR-3, 0.975 µM (active); with OVCAR-4, 1.42 µM (inactive); in the experiment with PC-3, 0.188 µM (active). The GI50 was 4.1 µM (inactive) with RXF 393; 1.82 µM (inactive) in the experiment on SF-539; 1.47 µM (inactive) in the experiment with SK-MEL-28; 0.112 µM (active) in the experiment with SK-MEL-5; 1.11 µM (active) in the experiment with SK-OV-3; 1.82 µM (inactive) with TK-10. Also, the GI50 was 0.069 µM (active) in the experiment with U-251 and 5.52 µM (inactive) with UO-31.

In the case of `Brc1ccc(/N=C/C=C(\Nc2ccc(Br)cc2)C23CC4CC(CC(C4)C2)C3)cc1`, the GI50 with CAKI-1 is 11.4 µM (inactive); in the experiment on CCRF-CEM it was 1.63 µM (inactive); with HCT-116, 9.04 µM (inactive); with HL-60, 2.95 µM (inactive); in the experiment on HOP-62, 19.1 µM (inactive); with K562, 4.5 µM (inactive). In addition, the GI50 in the experiment with KM12 was 12.7 µM (inactive); with MDA-MB-231, 15.6 µM (inactive); with NCI-H460, 6.12 µM (inactive); in the experiment with OVCAR-3, 14.1 µM (inactive); with OVCAR-4, 12.7 µM (inactive); with PC-3 it was 16.1 µM (inactive). Besides, the GI50 is 14.7 µM (inactive) in the experiment on RXF 393; 20 µM (inactive) with SF-539; 18.5 µM (inactive) in the experiment on SK-MEL-28; 9.33 µM (inactive) with SK-MEL-5; 18.6 µM (inactive) in the experiment with SK-OV-3; 14.8 µM (inactive) in the experiment on TK-10. In addition, the GI50 with U-251 is 14.4 µM (inactive); in the experiment on UO-31 it was 17.7 µM (inactive).

On to `COC(=O)[C@@H]1[C@H](OC(C)=O)CCC2[C@@]3(C[C@@H](c4ccoc4)O[C@@H]3OC)[C@H](C)CC[C@]21C(=O)OC` (stereo not given in full), for which the GI50 is > 25 µM (inactive) in the experiment on CAKI-1; > 25 µM (inactive) in the experiment with CCRF-CEM; > 25 µM (inactive) with HCT-116; 19 µM (inactive) in the experiment on HL-60; > 25 µM (inactive) in the experiment with K562; > 25 µM (inactive) with KM12. Moreover, the GI50 in the experiment on MDA-MB-231, in the experiment on NCI-H460, with OVCAR-3, with OVCAR-4, with PC-3 and in the experiment on RXF 393 was > 25 µM (inactive) in each case. Besides, the GI50 with SF-539, in the experiment with SK-MEL-5, in the experiment with SK-OV-3, in the experiment with TK-10, with U-251 and in the experiment on UO-31 was > 25 µM (inactive) in each case.

As for `O=C(Nc1ccc(Br)cc1)c1c(-c2ccccc2)c2ccc(O)cc2oc1=O`, the GI50 in the experiment with CAKI-1, in the experiment with CCRF-CEM, with HL-60, in the experiment on HOP-62, with K562 and with KM12 was > 10 µM (inactive) in each case. Moreover, the GI50 in the experiment with MDA-MB-231, in the experiment on NCI-H460, with OVCAR-3, in the experiment with OVCAR-4, in the experiment on PC-3 and in the experiment on RXF 393 was > 10 µM (inactive) throughout. Also, the GI50 in the experiment on SF-539, in the experiment on SK-MEL-28, in the experiment on SK-MEL-5, in the experiment on SK-OV-3, in the experiment on TK-10 and in the experiment with U-251 was > 10 µM (inactive) each time. For the same compound, the GI50 in the experiment with UO-31 was > 10 µM (inactive).

Take `CC(=O)NC1C(OCc2ccccc2)OC(CO)C(O)C1OCC(=O)N1CCCC1C(=O)NC(CCC(=O)NCCCCCNc1c2ccccc2nc2cccc([N+](=O)[O-])c12)C(N)=O` (stereo not given): the GI50 in the experiment with CAKI-1 is 0.0262 µM (active); in the experiment on CCRF-CEM, 0.07 µM (active); in the experiment with HCT-116, 0.00433 µM (active); with HL-60, 0.0221 µM (active); in the experiment with HOP-62 it was 0.017 µM (active); with K562 it was 0.00366 µM (active). The GI50 in the experiment with KM12 was 0.02 µM (active); in the experiment on MDA-MB-231, 0.0175 µM (active); in the experiment on NCI-H460 it was 0.00125 µM (active); in the experiment on OVCAR-3, 0.0301 µM (active); with OVCAR-4 it was 0.0982 µM (active); in the experiment with PC-3 it was 0.00321 µM (active). The GI50 is 0.00938 µM (active) in the experiment with RXF 393; 0.0456 µM (active) in the experiment on SF-539; 0.0307 µM (active) in the experiment with SK-MEL-28; 0.00853 µM (active) with SK-MEL-5; 0.0869 µM (active) in the experiment on SK-OV-3; 0.0508 µM (active) in the experiment on TK-10. Also, the GI50 in the experiment with U-251 was 0.0108 µM (active); in the experiment with UO-31, 0.0422 µM (active).

In the case of `C=C1c2nc3ccccc3n2C=C(c2ccc(C)cc2)N1c1ccc(C)cc1`, the GI50 in the experiment on CAKI-1 was > 100 µM (inactive); in the experiment on CCRF-CEM, 33 µM (inactive); in the experiment on HCT-116, 43.7 µM (inactive); with HL-60 it was 10.5 µM (inactive); in the experiment with HOP-62, > 100 µM (inactive); in the experiment with K562 it was 19.9 µM (inactive). For the same compound, the GI50 in the experiment on KM12 was 23.8 µM (inactive); in the experiment with MDA-MB-231, > 83.4 µM (inactive); in the experiment on NCI-H460, 42.3 µM (inactive); in the experiment on OVCAR-3 it was 64.7 µM (inactive); in the experiment with OVCAR-4 it was 69.5 µM (inactive); with PC-3, 28.6 µM (inactive). The GI50 in the experiment on RXF 393 is 25.9 µM (inactive); with SF-539, > 48.1 µM (inactive); in the experiment with SK-MEL-28, > 100 µM (inactive); in the experiment with SK-MEL-5, 19.8 µM (inactive); with SK-OV-3, > 100 µM (inactive); with TK-10, > 100 µM (inactive). Moreover, the GI50 is 86.3 µM (inactive) in the experiment on U-251 and 46 µM (inactive) in the experiment on UO-31.

For the compound `C1CN(c2nnc(N3CCC3)nn2)C1`, the GI50 was > 94.4 µM (inactive) in the experiment on CAKI-1; > 100 µM (inactive) in the experiment on CCRF-CEM; 84.5 µM (inactive) in the experiment with HCT-116; > 100 µM (inactive) in the experiment on HL-60; > 85.7 µM (inactive) with HOP-62; 23.6 µM (inactive) in the experiment on K562. For the same compound, the GI50 with KM12 is > 89.5 µM (inactive); in the experiment with MDA-MB-231 it was > 42.6 µM (inactive); in the experiment on NCI-H460, 67.9 µM (inactive); with OVCAR-3 it was > 92.7 µM (inactive); with OVCAR-4 it was 40.9 µM (inactive); with PC-3, > 46 µM (inactive). Besides, the GI50 with RXF 393 is > 63.5 µM (inactive); in the experiment on SF-539 it was 44.8 µM (inactive); with SK-MEL-28 it was 44.5 µM (inactive); in the experiment with SK-MEL-5, 25.2 µM (inactive); in the experiment on SK-OV-3 it was > 100 µM (inactive); in the experiment with TK-10, > 100 µM (inactive). Also, the GI50 in the experiment with U-251 is > 71.8 µM (inactive); in the experiment with UO-31 it was > 100 µM (inactive).

For the compound `O=c1oc2cccnc2n1CCN1CCN(c2ccc(Oc3ccccc3)cc2)CC1`, the GI50 in the experiment with CAKI-1 is > 100 µM (inactive); in the experiment on CCRF-CEM it was 7.21 µM (inactive); in the experiment with HCT-116 it was 33.6 µM (inactive); in the experiment on HL-60 it was 8.04 µM (inactive); in the experiment with HOP-62, > 100 µM (inactive); in the experiment with K562 it was 12.4 µM (inactive). Also, the GI50 in the experiment with MDA-MB-231 is > 100 µM (inactive); in the experiment on NCI-H460, 77.8 µM (inactive); in the experiment with OVCAR-3, 25.5 µM (inactive); in the experiment with OVCAR-4, 15.7 µM (inactive); in the experiment with PC-3, 34.4 µM (inactive); with RXF 393, > 100 µM (inactive). Also, the GI50 was > 100 µM (inactive) in the experiment with SF-539; > 100 µM (inactive) with SK-MEL-28; 10.2 µM (inactive) in the experiment with SK-MEL-5; > 100 µM (inactive) in the experiment with SK-OV-3; 61.8 µM (inactive) with TK-10; 56.9 µM (inactive) in the experiment with U-251. The GI50 in the experiment on UO-31 was 41.1 µM (inactive).

For the compound `COc1ccc2c(c1)[C@@]13CCN4CC5=CCO[C@H]6CC(=O)N2[C@H]1[C@H]6[C@H]5C[C@H]43`, the GI50 is > 100 µM (inactive) in the experiment with CAKI-1; 88.5 µM (inactive) in the experiment on CCRF-CEM; > 100 µM (inactive) in the experiment on HCT-116; 18.1 µM (inactive) in the experiment on HL-60; > 100 µM (inactive) in the experiment with HOP-62; > 100 µM (inactive) with KM12. In addition, the GI50 with MDA-MB-231, in the experiment with NCI-H460, in the experiment with OVCAR-3, in the experiment with OVCAR-4, in the experiment with PC-3 and with RXF 393 was > 100 µM (inactive) throughout. Further, the GI50 with SF-539 was > 100 µM (inactive); with SK-MEL-28, 80.5 µM (inactive); with SK-MEL-5, > 100 µM (inactive); in the experiment on SK-OV-3, > 100 µM (inactive); in the experiment with TK-10, 76.6 µM (inactive); in the experiment on U-251, > 100 µM (inactive). Further, in the experiment with UO-31, the GI50 is > 100 µM (inactive).
